According to publication PMC6813931, “Choline Kinase Emerges as a Promising Drug Target in Gram-Positive Bacteria” (Frontiers in Microbiology, 2019):

Tests used:
[1] = biological target: T1, sChoK (S. pneumoniae isoform of choline kinase, LicA) (Streptococcus pneumoniae, UniProt Q8DPI4); assay: sChoK activity inhibition (authors' earlier work); type: biochemical; details: authors' own earlier result (Zimmerman and Ibrahim 2017), restated here; cited from earlier work
T1 construct: gene pck; ChoK activity measured in cell extracts
T1 sequence (Q8DPI4 1-289): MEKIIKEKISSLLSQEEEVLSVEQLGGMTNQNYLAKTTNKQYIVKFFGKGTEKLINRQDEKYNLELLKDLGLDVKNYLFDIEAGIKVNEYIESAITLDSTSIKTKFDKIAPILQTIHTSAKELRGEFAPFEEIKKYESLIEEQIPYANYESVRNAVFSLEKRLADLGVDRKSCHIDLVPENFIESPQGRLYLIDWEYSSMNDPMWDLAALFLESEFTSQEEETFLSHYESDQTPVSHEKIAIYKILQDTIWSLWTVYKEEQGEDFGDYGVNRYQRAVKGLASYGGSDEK
Excerpt: sChoK activity inhibition (authors' earlier work) on sChoK (S. pneumoniae isoform of choline kinase, LicA)

[2] = biological target: T1, sChoK (S. pneumoniae isoform of choline kinase, LicA); assay: colorimetric ChoK activity assay in cell extracts; type: biochemical
Excerpt: colorimetric ChoK activity assay in cell extracts on sChoK (S. pneumoniae isoform of choline kinase, LicA)

| SMILES | IC50 [1] | IC50 [2] |
| --- | --- | --- |
| C[N+]1(C)CCOC(O)(c2ccc(-c3ccc(C4(O)C[N+](C)(C)CCO4)cc3)cc2)C1 (stereo not drawn) [HC-3] | > 2700 µM |  |
| CN(C)c1cc[n+](Cc2ccc(CCCCc3ccc(C[n+]4ccc(N(C)C)cc4)cc3)cc2)cc1 [MN58b] |  | 197 µM |
| CN(c1ccc(Cl)cc1)c1cc[n+](Cc2ccc(-c3ccc(C[n+]4ccc(N(C)c5ccc(Cl)cc5)c5ccccc54)cc3)cc2)c2ccccc12 [RSM-932A] |  | 0.5 µM |
